Source: patent US8685443B2, “Sequestering subunit and related compositions and methods” (Alpharma Pharmaceuticals LLC, priority 2002, dated 2014)
Where a name gives a salt, the structure may show the parent alone.

Assays:
[1] = in comparison to a 15 mg dose of hydrocodone
opioid receptors = settings: after oral administration; cited from earlier work
[2] = hydrochloride salt; cited from earlier work
mu over delta sites = settings: cited from earlier work

Row | Compound | Calculated Dose (equianalgesic dose) [1] [mg] | also measured
1 | COc1ccc2c3c1O[C@H]1[C@@H](O)C=C[C@H]4[C@@H](C2)N(C)CC[C@@]341 [Codeine] | 90.0 | –
2 | COc1ccc2c3c1OC1C(=O)CC[C@H]4[C@@H](C2)N(C)CC[C@]314 (stereo partly drawn) [Hydrocodone, 4,5-epoxy-3-methoxy-17-methylmorphinan-6-one] | 15.0 | –
3 | CN1CC[C@]23CCCC[C@H]2[C@H]1Cc1ccc(O)cc13 [Levorphanol] | 1.8 | –
4 | CCC(=O)C(CC(C)N(C)C)(c1ccccc1)c1ccccc1 (stereo not drawn) [Methadone] | 9.0 | –
5 | COc1ccc2c3c1OC1C(=O)CC[C@@]4(O)[C@@H](C2)N(C)CC[C@]314 (stereo partly drawn) [Oxycodone, 4,5-epoxy-14-hydroxy-3-methoxy-17-methylmorphinan-6-one] | 13.5 | –
6 | C[C@H]1[C@H]2Cc3ccc(O)cc3[C@]1(C)CCN2CC1CC1 [cyclazocine] | – | duration of effect (opioid receptors): ~24 h
7 | O=C1CC[C@@]2(O)[C@H]3Cc4ccc(O)c5c4[C@@]2(CCN3CC2CC2)[C@H]1O5 [hydrochloride salt of naltrexone, naltrexone] | – | solubility in water [2]: about 100 mg/cc
8 | O=C1CC[C@@]2(O)[C@H]3Cc4ccc(O)c5c4[C@@]2(CCN3CC2CC2)[C@H]1O5 [naltrexone] | – | blocking action, mu over delta sites (mu over delta sites): strong preferential blocking action against mu over delta sites
9 | Meperidine | 135.0 | –
